Measured values reported in patent publication US8367328B2, “Method for synthesizing DNA” (Takara Bio Inc., priority 1998, dated 2013).

What was measured:
[1] = tested on: Pfu DNA Polymerase I and Pfu DNA Polymerase II; test: PCR with Pfu DNA Polymerase I plus Pfu DNA Polymerase II in the presence of acidic substances; type: biochemical, Pyrococcus furiosus; conditions: commercially available sodium alginate, 100 to 1000 centipoises; Example 12 conditions
Description: Using λDNA as a template, and each of primers λ1 and λ3, primers λ1 and λ4, or primers λ1 and λ5 as a primer pair, the reaction mixture having the following composition was prepared.
Composition of Reaction Mixture: 10 mM Tris-hydrochloric acid (pH 9.2), 75 mM potassium chloride, 6 mM magnesium chloride, 0.4 mM each of dATP, dCTP, dGTP and dTTP, 0.01% BSA, 1.25 U of Pfu DNA Polymerase I and 1.25 U of Pfu DNA Polymerase II, 500 pg of λDNA, and 5 pmol each of the primers, 5 ng or 50 ng of sulfated-fucose-containing polysaccharide-F (a final volume being 25 μl). In addition, as a control, one without addition of sulfated-fucose-containing polysaccharide-F was prepared.
The reaction in 30 cycles was carried out for each of these reaction mixtures, wherein one cycle of reaction comprises a process consisting of 98° C., 0 seconds—68° C., 0 seconds. Thereafter, 5 μl of the resulting reaction mixture was subjected to electrophoresis on 1% agarose gel containing ethidium bromide in an amount of 0.00005%, whereby an amplified fragment was confirmed.
PCR was carried out by using in combination Pfu DNA Polymerase II obtained in Example 1 and Pfu DNA Polymerase I (manufactured by Stratagene), which is α-type DNA polymerase, and sodium alginate, which is an acidic substance.
A reaction mixture comprising λDNA as a template, primers λ1 and λ3 as a primer pair was prepared, and PCR was carried out. […]

KOD dash DNA Polymerase = test: PCR with KOD dash DNA Polymerase in the presence of acidic substances; type: biochemical; conditions: 12 kb fragment; 10 pg λDNA, primers λ1/λ9, 25 cycles 98°C 5 s–68°C 3 min; amount added 0.5 μg
Description: (2) The effects of the acidic substances were studied for KOD dash DNA Polymerase (manufactured by TOYOBO CO., LTD.), comprising a combination of DNA polymerase having 3′→5′ exonuclease activity, and DNA polymerase having no such activity. A reaction mixture comprising λDNA as a template, primers λ1 and λ9 as a primer pair was prepared, and PCR was carried out. In the following example, PCR was carried out in Fast mode by using TaKaRa PCR Thermal Cycler Personal (manufactured by Takara Shuzo Co., Ltd.). The composition of the reaction mixture is as follows. Composition of Reaction Mixture: exclusive buffer attached for KOD dash DNA Polymerase, 0.2 mM each of dATP, dCTP, dGTP and dTTP, 10 pg of λDNA, 2.5 U of KOD dash DNA Polymerase, and 10 pmol each of primers λ1 and λ9 (a final volume being 50 μl). Further, 1 ng of the sulfated-fucose-containing polysaccharide-F or 0.5 μg of sodium alginate was respectively added to the above reaction mixture.
The reaction was carried out in 25 cycles, wherein one cycle of reaction comprises a process consisting of 98° C., 5 seconds—68° C., 3 minutes. After the termination of the reaction, 5 μl of the resulting reaction mixture was subjected to electrophoresis on 1% agarose gel containing ethidium bromide in an amount of 0.00005%, whereby an amplified fragment was confirmed.

sodium alginate
Amplification efficiency for DNA synthesis, sodium alginate of each viscosity [1]: completely the same improvements
Amplification Results (KOD dash DNA Polymerase): ++ (Intensive amplification being observed)
